Experimental data reported in US12491202B2, “Phospholipid ether analogs for imaging and targeted treatment of pediatric solid tumors” (Wisconsin Alumni Research Foundation, priority 2016, dated 2025).

Tests used:
[1] = system: normal human pediatric fibroblast (HUFI) cells; assay: CLR1501 uptake by flow cytometry in normal fibroblasts; format: cell-based; conditions: 5 μM, 16-19 hours incubation; compared with pediatric tumor cell lines
Text: (§1) FIG. 4 is a bar graph illustrating the preferential uptake of CLR1501, a fluorescent derivative of CLR1404, by pediatric solid cancer cells (rhabdomyosarcoma Rd, Rh-41; Ewing's sarcoma TC-71, TC-106; neuroblastoma SK-N-AS, NB1691; osteosarcoma SAOS-2; glioblastoma SJ-GBM2), and for reference, the adult cancer cell lines PC3 and MT-330, compared to normal human fibroblasts (HUFI), by flow cytometry. Mean±standard error (SE) from minimum 3 experiments per cell line, *P≤0.01. MFI, mean fluorescence intensity; RMS, rhabdomyosarcoma; EWS, Ewing's sarcoma; NB, neuroblastoma; OS, osteosarcoma; GB, glioblastoma, PC, prostate adenocarcinoma. Cells were plated at 5×10^5 cells/ml in triplicates in media containing 5 μM CLR1501 (fluorescent CLR1404). Mean fluorescence intensity corrected for auto-fluorescence was averaged from three experiments±standard deviation.
(§2) Each cell line (5×10^5 cells/ml) was incubated for 16-19 hours with 5 μM CLR1501, then washed with 10% FBS medium for 4 hours. Cells were then measured by flow cytometry (FACSCalibur, BD Biosciences) and analyzed using FlowJo 8.2 (Tree Star, Ashland, Oreg.). Mean fluorescence intensity (MFI) per cell was corrected for autofluorescence (FL1 index) and averaged from three experiments±standard deviation.

[2] = system: pediatric solid tumor cells; assay: CLR1501 uptake by flow cytometry in pediatric solid tumor cell lines; format: cell-based, human; conditions: 5 μM, 16-19 hours incubation, 4 hours wash; Rd, Rh-41, TC-71, TC-106, SK-N-AS, NB-1691, SAOS-2, SJ-GBM2 p<0.01; CHLA-20, Rh-30 p≤0.02
Text: as §1, §2

[3] = system: xenografted pediatric solid tumor tissue (Rh30, TC-71, CHLA-20, NB-1691); assay: In vivo uptake of 124I-CLR1404 by PET/CT in xenografted mice; design: species or system mouse; conditions: NSG mice, 8-13 μCi/g via tail vein injection
Experimental: Specifically, […] with one of four different pediatric tumor cell lines (CHLA-20 (neuroblastoma), NB-1691 (neuroblastoma), TC-71 (Ewing sarcoma), and Rh-30 (rhabdomyosarcoma). For each of the sixteen xenografted mice, 100 μl cell suspension containing 3×10^6 tumor cells (>95% viability, passage 5-25) was inoculated into subcutaneous tissue of the left flank of a 6-8 week-old NSG mouse (NOD.Cg-Prdc^scidII2rg^tm1Wj1/SzJ, Jackson Laboratory, Bar Harbor, Me.). Once xenograft tumors measured a minimum of about 7×7 mm, the mice received ^124I-CLR1404 at 8-13 μCi/g via tail vein injection. After an uptake period, PET/CT imaging was performed on the mice at 5 and 6 time-points. Following image acquisition, the images were reconstructed, co-registered, resampled, rescaled, and corrected for partial volume effects (PVE), and masked.

[4] = system: pediatric solid cancer xenografts; assay: Tumor volume, survival and toxicity in pediatric solid cancer xenograft NSG models; format: in vivo, mouse; conditions: 3.5 μCi/g
Experimental: (§3) Rh30, TC-71, TC-106, CHLA-20, NB-1691, and SAOS-2 subcutaneous flank xenografts were induced in mice, as described in Example 2 above. Tumors were measured twice weekly with calipers, and the tumor volume was calculated. When tumors reached a volume of approximately 50 mm^3, mice were randomly assigned to receive either ^131I-CLR1404 in doses of 3.5 μCi/g or an excipient (equimolar ^127I-CLR1404), and measurement of tumor size continued. Survival rates as a function of time were also observed in the xenografted mice.

[5] = system: TC-106 Ewing's sarcoma xenograft; assay: Tumor growth rate, linear mixed effects model, TC-106 xenograft; format: in vivo, mouse; conditions: 3.5 μCi/g, excipient slope 0.26, P <0.0001
Experimental: as §3
(§4) A linear mixed effects analysis of predicted growth rate was performed using the tumor size data described above. The results are shown in Table 1 below, and in graphical form in FIG. 10.

[6] = system: SAOS-2 osteosarcoma xenograft; assay: Tumor growth rate, linear mixed effects model, SAOS-2 xenograft; format: in vivo, mouse; conditions: 3.5 μCi/g, excipient slope 0.11, P <0.0001
Experimental: as §3, §4

[7] = system: NB-1691 neuroblastoma xenograft; assay: Tumor growth rate, linear mixed effects model, NB-1691 xenograft; format: in vivo, mouse; conditions: 3.5 μCi/g, excipient slope 0.15, P <0.0001
Experimental: as §3, §4

[8] = system: TC-71 Ewing's sarcoma xenograft; assay: Tumor growth rate, linear mixed effects model, TC-71 xenograft; format: in vivo, mouse; conditions: 3.5 μCi/g, excipient slope 0.14, P <0.0003
Experimental: as §3, §4

[9] = system: CHLA-20 neuroblastoma xenograft; assay: Tumor growth rate, linear mixed effects model, CHLA-20 xenograft; format: in vivo, mouse; conditions: 3.5 μCi/g, excipient slope 0.13, P 0.0124
Experimental: as §3, §4

[10] = system: Rh30 rhabdomyosarcoma xenograft; assay: Tumor growth rate, linear mixed effects model, Rh30 xenograft; format: in vivo, mouse; conditions: 3.5 μCi/g, excipient slope 0.18, P <0.0001
Experimental: as §3, §4

C[N+](C)(C)CCOP(=O)([O-])OCCCCCCCCCCCCCCCCCCc1ccc(C2=C3C=CC=[N+]3[B-](F)(F)n3cccc32)cc1 [CLR1501]
CLR1501 uptake in normal cells [1]: much less uptake | CLR1501 uptake (mean fluorescence intensity) versus normal pediatric fibroblast (HUFI) cells [2]: significantly higher

C[N+](C)(C)CCOP(=O)([O-])OCCCCCCCCCCCCCCCCCCc1ccc([124I])cc1 [^124I-CLR1404]
Uptake into xenografted tumor tissue (PET/CT) [3]: differential uptake

C[N+](C)(C)CCOP(=O)([O-])OCCCCCCCCCCCCCCCCCCc1ccc([131I])cc1 [^131I-CLR1404]
Toxicity ([4]; xenografted mice): low toxicity | Mean tumor volumes versus excipient ([4]; Rh30, TC-71, CHLA-20 and NB-1691 xenografts): decreased mean tumor volumes | Animal survival versus excipient ([4]; four groups, statistically significant in Ewing's sarcoma and rhabdomyosarcoma xenografts): extended animal survival | Slope log volume (prediction of the tumor growth rate) [5]: 0.10 | Slope log volume (prediction of the tumor growth rate) [6]: 0.08 | Slope log volume (prediction of the tumor growth rate) [7]: 0.09 | Slope log volume (prediction of the tumor growth rate) [8]: 0.08 | Slope log volume (prediction of the tumor growth rate) [9]: 0.09 | Slope log volume (prediction of the tumor growth rate) [10]: 0.06
